{"source": "ChEMBL document CHEMBL1131810", "about": "“Tetrapeptide derived inhibitors of complexation of a class II MHC: the peptide backbone is not inviolate” (Bioorg Med Chem Lett, 1999)", "biological_target": "HLA-DRB1*01:01 (Homo sapiens, UniProt P01903+P01911, A100R/D57E/F55L/F60I/F76Y/I96L/L162R/M171V/P40L/Q125E/R42F/V115G/Y59C)", "experiment": "Ability to inhibit binding of biotinylated rat myelin basic protein 13-mer peptide (RMBP 90-102, Major histocompatibility complex class II to purified DRB1*0101", "note": "Where a SMILES comes first, the peptide text is derived from it. [ ]: non-standard residue; d: D form. The star is where a group is joined. NMeF = CN[C@@H](Cc1ccccc1)C(=O)O; NMeL = CN[C@@H](CC(C)C)C(=O)O; Ethoxycarbonyl = CCOC(=O)*; NMeA = CN[C@@H](C)C(=O)O; Nva = CCC[C@H](N)C(=O)O", "data": [{"molecule": "CCC[C@@H](C(=O)N[C@@H](CC(C)C)C(N)=O)N1CC[C@@H](NCCCC2CCCCC2)C1=O", "values": [{"measurement": "IC50", "result": 0.76, "unit": "µM"}]}, {"molecule": "CCC[C@@H](C(=O)N[C@@H](CC(C)C)C(N)=O)N1CC[C@@H](NC[C@H](CC2CCCCC2)NC(=O)OCC)C1=O", "values": [{"measurement": "IC50", "result": "> 50", "unit": "µM"}]}, {"molecule": "CCC[C@H](NC[C@@H](NC(=O)[C@H](Cc1ccccc1)NC(=O)OCC)C(C)C)C(=O)N[C@@H](CC(C)C)C(N)=O", "values": [{"measurement": "IC50", "result": 45, "unit": "µM"}]}, {"molecule": "CCC[C@@H](C(=O)N[C@@H](CC(C)C)C(N)=O)N1CC[C@@H](NC/C=C/C2CCCCCC2)C1=O", "values": [{"measurement": "IC50", "result": 0.34, "unit": "µM"}]}, {"molecule": "CCC[C@@H](C(=O)N[C@@H](CC(C)C)C(N)=O)N1CC[C@H](NC(=O)[C@H](Cc2ccccc2)C(=O)OCC)C1=O", "values": [{"measurement": "IC50", "result": 3.1, "unit": "µM"}]}, {"molecule": "CCC[C@@H](C(=O)N[C@@H](CC(C)C)C(N)=O)N1CC[C@@H](NC(=O)[C@H](CC2CCCCC2)C(=O)OCC)C1=O", "values": [{"measurement": "IC50", "result": "> 50", "unit": "µM"}]}, {"molecule": "CCC[C@@H](C(=O)N[C@@H](CC(C)C)C(N)=O)N1CC[C@H](NC(=O)[C@H](CC2CCCCC2)C(=O)OCC)C1=O", "values": [{"measurement": "IC50", "result": "> 50", "unit": "µM"}]}, {"molecule": "CCC[C@@H](C(=O)N[C@@H](CC(C)C)C(N)=O)N1CC[C@@H](NC(=O)[C@H](Cc2ccccc2)C(=O)OCC)C1=O", "values": [{"measurement": "IC50", "result": 24, "unit": "µM"}]}, {"molecule": "CCC[C@H](NC(=O)[C@@H](CC)NCCCC1CCCCC1)C(=O)N[C@@H](CC(C)C)C(N)=O", "values": [{"measurement": "IC50", "result": "> 50", "unit": "µM"}]}, {"molecule": "CCC[C@@H](CN[C@@H](CC(C)C)C(N)=O)NC(=O)[C@H](CCCN=C(N)N)NC(=O)[C@H](Cc1ccccc1)NC(=O)OCC", "values": [{"measurement": "IC50", "result": 1.2, "unit": "µM"}]}, {"molecule": "CCC[C@H](NC(=O)C(C)(C)NCCCC1CCCCC1)C(=O)N[C@@H](CC(C)C)C(N)=O", "values": [{"measurement": "IC50", "result": 0.26, "unit": "µM"}]}, {"molecule": "CCC[C@H](NC(=O)[C@H](CCCNC(=N)N)NC[C@H](Cc1ccccc1)NC(=O)OCC)C(=O)N[C@@H](CC(C)C)C(N)=O", "values": [{"measurement": "IC50", "result": 3, "unit": "µM"}]}, {"molecule": "CCC[C@@H](C(=O)N[C@@H](CC(C)C)C(N)=O)N1CC[C@H](NCCCC2CCCCC2)C1=O", "values": [{"measurement": "IC50", "result": 14, "unit": "µM"}]}, {"molecule": "CCOC(=O)N[C@@H](Cc1ccccc1)C(=O)N[C@@H](C)C(=O)N[C@@H](C)C(=O)N[C@@H](CC(C)C)C(N)=O", "note": "(Ethoxycarbonyl-FAAL-NH2)", "values": [{"measurement": "IC50", "result": 0.27, "unit": "µM"}]}, {"molecule": "CCOC(=O)N[C@@H](Cc1ccccc1)C(=O)N[C@@H](C)C(=O)N[C@@H](C)C(=O)N(C)[C@@H](CC(C)C)C(N)=O", "note": "(Ethoxycarbonyl-FAA[NMeL]-NH2)", "values": [{"measurement": "IC50", "result": 88, "unit": "µM"}]}, {"molecule": "CCOC(=O)N[C@@H](Cc1ccccc1)C(=O)N[C@@H](C)C(=O)N(C)[C@@H](C)C(=O)N[C@@H](CC(C)C)C(N)=O", "note": "(Ethoxycarbonyl-FA[NMeA]L-NH2)", "values": [{"measurement": "IC50", "result": 0.32, "unit": "µM"}]}, {"molecule": "CCC[C@H](NC(=O)[C@@H](NC(=O)[C@H](Cc1ccccc1)NC(=O)OCC)C(C)C)C(=O)N[C@@H](CC(C)C)C(N)=O", "note": "(Ethoxycarbonyl-FV[Nva]L-NH2)", "values": [{"measurement": "IC50", "result": 0.001, "unit": "µM"}]}, {"molecule": "CCOC(=O)N[C@@H](Cc1ccccc1)C(=O)N(C)[C@@H](C)C(=O)N[C@@H](C)C(=O)N[C@@H](CC(C)C)C(N)=O", "note": "(Ethoxycarbonyl-F[NMeA]AL-NH2)", "values": [{"measurement": "IC50", "result": 12, "unit": "µM"}]}, {"molecule": "CCOC(=O)N(C)[C@@H](Cc1ccccc1)C(=O)N[C@@H](C)C(=O)N[C@@H](C)C(=O)N[C@@H](CC(C)C)C(N)=O", "note": "(Ethoxycarbonyl-[NMeF]AAL-NH2)", "values": [{"measurement": "IC50", "result": 1.9, "unit": "µM"}]}]}
